pEC50, pIC50: −log10 of the molar value. Where two headings read alike, the source gives them in different places.
How the values were obtained:
[1] = molecular target: EGFR Fab binding to the EGFR antigen; test: ELISA competitive inhibition of EGFR Fab binding to EGFR antigen
EGFR Fab = test: ELISA binding of peptides to EGFR Fab; details: for pEC50: read-out: EC50 for peptide binding to αEGFR Fab; for binding affinity for EGFR Fab (in words): among peptides of Table 14
[2] = read-out: IC50 for peptide inhibition of αEGFR Fab binding to EGFR antigen, Table 17
[3] = read-out: IC50 for peptide inhibition of αEGFR Fab binding to EGFR antigen, Table 18
[4] = Table 21, peptide-8 alanine scanning mutants, read-out: IC50
[5] = read-out: IC50 for peptide inhibition of αEGFR Fab binding to EGFR antigen, Table 27, peptide-8 optimization
[6] = Table 25, peptide-8 optimization

## CC(C)C[C@H](NC(=O)[C@@H]1CSSC[C@H](NC(=O)[C@@H](N)Cc2c[nH]c3ccccc23)C(=O)N[C@@H]([C@@H](C)O)C(=O)N[C@@H](C(C)C)C(=O)N[C@@H](Cc2c[nH]c3ccccc23)C(=O)NCC(=O)N[C@@H](CC(=O)O)C(=O)N[C@@H](CCCNC(=N)N)C(=O)N[C@@H](CCC(N)=O)C(=O)N[C@@H](CCC(=O)O)C(=O)N[C@@H](C(C)C)C(=O)N[C@@H](CCCNC(=N)N)C(=O)N1)C(=O)O [Peptide-7]
[1]; [2]
  pIC50: < 6.52
EGFR Fab; Table 15
  pEC50: < 6.00

## CC[C@H](C)[C@@H]1NC(=O)[C@H](Cc2c[nH]cn2)NC(=O)[C@H](CO)NC(=O)[C@H](CCCNC(=N)N)NC(=O)[C@@H](NC(=O)[C@@H]2CCCN2)CSSC[C@@H](C(=O)N[C@H](C(=O)O)C(C)C)NC(=O)[C@H]([C@@H](C)CC)NC(=O)[C@@H]2CCCN2C(=O)[C@H](CCCCN)NC(=O)[C@H](C)NC(=O)[C@H](C(C)C)NC(=O)[C@H](CC(=O)O)NC1=O [Peptide-8]
[1]; among peptides of Table 14
  inhibiting EGFR Fab binding to the EGFR antigen (in words): most effective at inhibiting EGFR Fab binding to the EGFR antigen
EGFR Fab
  binding affinity for EGFR Fab (in words): strongest binding affinities (lowest EC50s)
EGFR Fab; Table 15
  pEC50: 8.10
EGFR Fab; Table 24, peptide-8 optimization
  pEC50: 6.16

## CSCC[C@@H]1NC(=O)[C@H](Cc2c[nH]c3ccccc23)NC(=O)[C@H](Cc2ccc(O)cc2)NC(=O)[C@H](Cc2c[nH]cn2)NC(=O)[C@H](C(C)C)NC(=O)[C@@H](NC(=O)[C@@H](NC(=O)[C@@H](N)CO)[C@@H](C)O)CSSC[C@@H](C(=O)N[C@H](C(=O)O)C(C)C)NC(=O)[C@H](CO)NC(=O)[C@H](CCCNC(=N)N)NC(=O)[C@H](CC(C)C)NC(=O)[C@H](CCC(N)=O)NC1=O [Peptide-9]
[1]; [2]
  pIC50: < 6.52
EGFR Fab; Table 15
  pEC50: < 6.00

## CSCC[C@@H]1NC(=O)[C@H](C(C)C)NC(=O)[C@H](Cc2c[nH]c3ccccc23)NC(=O)[C@H](Cc2c[nH]cn2)NC(=O)[C@H](C)NC(=O)[C@@H](NC(=O)CNC(=O)CN)CSSC[C@@H](C(=O)N[C@@H](CCC(N)=O)C(=O)O)NC(=O)[C@H](Cc2c[nH]c3ccccc23)NC(=O)[C@H](CO)NC(=O)[C@H](CC(C)C)NC(=O)[C@H](CCCNC(=N)N)NC1=O [Peptide-10]
[1]; [2]
  pIC50: < 6.52
EGFR Fab; Table 15
  pEC50: < 6.00

## CSCC[C@@H]1NC(=O)[C@H](CC(C)C)NC(=O)[C@H](Cc2ccccc2)NC(=O)[C@H](Cc2c[nH]cn2)NC(=O)[C@H](CCC(N)=O)NC(=O)[C@@H](NC(=O)CNC(=O)[C@@H](N)CC(C)C)CSSC[C@@H](C(=O)NCC(=O)O)NC(=O)[C@H]([C@@H](C)O)NC(=O)[C@H](C)NC(=O)[C@H](CC(C)C)NC(=O)[C@H](CCCCN)NC1=O [Peptide-11]
[1]; [2]
  pIC50: < 6.52
EGFR Fab; Table 15
  pEC50: 7.38

## CSCC[C@@H]1NC(=O)[C@H](CCCNC(=N)N)NC(=O)[C@H](C(C)C)NC(=O)[C@H](CCSC)NC(=O)[C@H](CCCNC(=N)N)NC(=O)[C@H](Cc2c[nH]cn2)NC(=O)[C@H](CC(C)C)NC(=O)CNC(=O)[C@H](CC(=O)O)NC(=O)CNC(=O)[C@@H](NC(=O)CN)CSSC[C@@H](C(=O)O)NC(=O)[C@H](Cc2c[nH]c3ccccc23)NC1=O [Peptide-12]
[1]; [2]
  pIC50: < 6.52
EGFR Fab; Table 15
  pEC50: < 6.00

## CSCC[C@@H]1NC(=O)[C@H](C(C)C)NC(=O)[C@H]([C@@H](C)O)NC(=O)[C@@H](NC(=O)[C@H](C)N)CSSC[C@@H](C(=O)N[C@H](C(=O)O)C(C)C)NC(=O)[C@H](CCCNC(=N)N)NC(=O)[C@H](C(C)C)NC(=O)[C@H](CCC(=O)O)NC(=O)[C@H](CCC(N)=O)NC(=O)[C@H](CCCNC(=N)N)NC(=O)[C@H](C)NC(=O)CNC1=O [Peptide-13]
[1]; [3]
  pIC50: < 6.52
EGFR Fab; Table 16
  pEC50: < 6.00

## CC[C@H](C)[C@@H]1NC(=O)[C@H](CC(C)C)NC(=O)[C@H](C)NC(=O)[C@@H]2CCCN2C(=O)[C@@H](NC(=O)[C@@H]2CCCN2)CSSC[C@@H](C(=O)N[C@H](C(=O)O)C(C)C)NC(=O)[C@H]([C@@H](C)CC)NC(=O)[C@H](C(C)C)NC(=O)[C@H](CCC(=O)O)NC(=O)[C@H](C)NC(=O)[C@H](C(C)C)NC(=O)[C@H](CC(=O)O)NC1=O [Peptide-14]
[1]; [3]
  pIC50: < 6.52
EGFR Fab; Table 16
  pEC50: < 6.00

## CC(C)C[C@@H]1NC(=O)[C@H](CCC(N)=O)NC(=O)CNC(=O)[C@H](CCCNC(=N)N)NC(=O)[C@H](CCC(N)=O)NC(=O)[C@H](Cc2c[nH]c3ccccc23)NC(=O)[C@H](C(C)C)NC(=O)[C@H](CO)NC(=O)[C@H](CC(N)=O)NC(=O)[C@@H](NC(=O)[C@@H](N)Cc2ccc(O)cc2)CSSC[C@@H](C(=O)O)NC(=O)[C@H](Cc2c[nH]c3ccccc23)NC(=O)[C@H](Cc2ccc(O)cc2)NC1=O [Peptide-15]
[1]; [3]
  pIC50: < 6.52
EGFR Fab
  binding affinity for EGFR Fab (in words): strongest binding affinities (lowest EC50s)
EGFR Fab; Table 16
  pEC50: 8.15

## CSCC[C@@H]1NC(=O)[C@H](Cc2c[nH]cn2)NC(=O)[C@H](CO)NC(=O)[C@@H](NC(=O)[C@@H](N)CCC(=O)O)CSSC[C@@H](C(=O)N[C@@H](CO)C(=O)O)NC(=O)[C@H](CC(C)C)NC(=O)[C@@H]2CCCN2C(=O)[C@H](Cc2c[nH]c3ccccc23)NC(=O)[C@H](CCCNC(=N)N)NC(=O)[C@H]([C@@H](C)O)NC(=O)CNC(=O)[C@H](CCC(=O)O)NC1=O [Peptide-16]
[1]; [3]
  pIC50: < 6.52
EGFR Fab; Table 16
  pEC50: 7.47

## CC[C@H](C)[C@@H]1NC(=O)[C@H](C)NC(=O)[C@H](CCCCN)NC(=O)[C@H](C)NC(=O)[C@H](C(C)C)NC(=O)[C@H](CC(=O)O)NC(=O)[C@H]([C@@H](C)CC)NC(=O)[C@H](Cc2c[nH]cn2)NC(=O)[C@H](CO)NC(=O)[C@H](CCCNC(=N)N)NC(=O)[C@@H](NC(=O)[C@@H]2CCCN2)CSSC[C@@H](C(=O)N[C@H](C(=O)O)C(C)C)NC1=O [Peptide-25]
[1]; [4]
  pIC50: < 4.00

## CC[C@H](C)[C@@H]1NC(=O)[C@H](Cc2c[nH]cn2)NC(=O)[C@H](CO)NC(=O)[C@H](CCCNC(=N)N)NC(=O)[C@@H](NC(=O)[C@@H]2CCCN2)CSSC[C@@H](C(=O)N[C@H](C(=O)O)C(C)C)NC(=O)[C@H](C)NC(=O)[C@@H]2CCCN2C(=O)[C@H](CCCCN)NC(=O)[C@H](C)NC(=O)[C@H](C(C)C)NC(=O)[C@H](CC(=O)O)NC1=O [Peptide-26]
[1]; [4]
  pIC50: < 4.00

## CC[C@H](C)[C@@H]1NC(=O)[C@H](Cc2c[nH]cn2)NC(=O)[C@H](CO)NC(=O)[C@H](CCCNC(=N)N)NC(=O)[C@@H](NC(=O)[C@@H]2CCCN2)CSSC[C@@H](C(=O)N[C@@H](C)C(=O)O)NC(=O)[C@H]([C@@H](C)CC)NC(=O)[C@@H]2CCCN2C(=O)[C@H](CCCCN)NC(=O)[C@H](C)NC(=O)[C@H](C(C)C)NC(=O)[C@H](CC(=O)O)NC1=O [Peptide-27]
[1]; Table 21
  Fold shift in IC50 relative to Peptide-8 (IC50 Ala mutant/IC50 Peptide-8): 2.2
[1]; [4]
  pIC50: 5.51

## CC[C@H](C)[C@@H]1NC(=O)[C@@H]2CCCN2C(=O)[C@H](CCCCN)NC(=O)[C@H](C)NC(=O)[C@H]([C@@H](C)O)NC(=O)[C@H](CC(=O)O)NC(=O)[C@H](Cc2ccccc2)NC(=O)[C@H](Cc2c[nH]cn2)NC(=O)[C@H](CO)NC(=O)[C@H]([C@@H](C)O)NC(=O)[C@@H](NC(=O)[C@@H]2CCCN2)CSSC[C@@H](C(=O)N[C@@H](C)C(=O)O)NC1=O [Peptide-39]
[1]; [5]
  pIC50: 5.55
EGFR Fab; [6]
  pEC50: 6.69

## CC[C@H](C)[C@@H]1NC(=O)[C@@H]2CCCN2C(=O)[C@H](CCCCN)NC(=O)[C@H](C)NC(=O)[C@@H]2CCCN2C(=O)[C@H](CC(=O)O)NC(=O)[C@H](CC(N)=O)NC(=O)[C@H](Cc2c[nH]cn2)NC(=O)[C@H](CO)NC(=O)[C@H](CC(C)C)NC(=O)[C@@H](NC(=O)[C@@H]2CCCN2)CSSC[C@@H](C(=O)N[C@@H](C)C(=O)O)NC1=O [Peptide-41]
[1]; [5]
  pIC50: 5.37
EGFR Fab; [6]
  pEC50: 6.53

— patent US12433953B2, “Compositions and methods related to tumor activated antibodies targeting EGFR and effector cell antigens” (Janux Therapeutics, Inc., priority 2021, dated 2025)
